Data taken from paper PMC2774691, “Fluorescent Cascade and Direct Assays for Characterization of RAF Signaling Pathway Inhibitors” (Current Chemical Genomics, 2008).

Tests used:
CRAF [1] = target: T1, CRAF (Homo sapiens, UniProt P04049, Y340D/Y341D); test: FRET-based kinase profiling, C-RAF; type: biochemical; details: 1 µM inhibitor, ATP at Km app
VEGFR3 = target: T2, VEGFR3 (Homo sapiens, UniProt P35916); test: FRET-based kinase profiling, VEGFR3; type: biochemical
T2 construct: purchased Invitrogen
Protocol: (§1) The buffer consisted of 50 mM HEPES pH 7.5, 10 mM MgCl2, 1 mM EGTA, 0.01% Brij-35. Kinase reactions were typically initiated by the addition of either ATP or the active kinase and allowed to proceed for 1 hour at room temperature (RT). Following the 1 hour kinase assay, 5 µL of development reagent was added and the development reaction allowed to progress for 1 hour at RT, essentially as described previously.

FLT3 = target: T3, FLT3 (Homo sapiens, UniProt P36888); test: FRET-based kinase profiling, FLT3; type: biochemical
T3 construct: purchased Invitrogen

FLT3 D835Y = target: T4, FLT3 D835Y (Homo sapiens, UniProt P36888, D835Y); test: FRET-based kinase profiling, FLT3 D835Y; type: biochemical
T4 construct: purchased Invitrogen

RET = target: T5, RET (Homo sapiens, UniProt P07949); test: FRET-based kinase profiling, RET; type: biochemical
T5 construct: purchased Invitrogen
Protocol: as §1

RET Y791F = target: T6, RET Y791F (Homo sapiens, UniProt P07949, Y791F); test: FRET-based kinase profiling, RET Y791F; type: biochemical
T6 construct: purchased Invitrogen
Protocol: as §1

RET V804L = target: T7, RET V804L (Homo sapiens, UniProt P07949, V804L); test: FRET-based kinase profiling, RET V804L; type: biochemical
T7 construct: purchased Invitrogen
Protocol: as §1

PDGFR α = target: T8, PDGFR α (Homo sapiens, UniProt P16234); test: FRET-based kinase profiling, PDGFR α; type: biochemical
T8 construct: purchased Invitrogen
Protocol: as §1

PDGFR α D842V = target: T9, PDGFR α D842V (Homo sapiens, UniProt P16234, D842V); test: FRET-based kinase profiling, PDGFR α D842V; type: biochemical
T9 construct: purchased Invitrogen
Protocol: as §1

PDGFR α T674I = target: T10, PDGFR α T674I (Homo sapiens, UniProt P16234, T674I); test: FRET-based kinase profiling, PDGFR α T674I; type: biochemical
T10 construct: purchased Invitrogen
Protocol: as §1

HIPK4 = target: T11, HIPK4 (Homo sapiens, UniProt Q8NE63); test: FRET-based kinase profiling, HIPK4; type: biochemical
T11 construct: purchased Invitrogen

ERK2 = target: T12, ERK2 (Homo sapiens, UniProt P28482); test: ERK2 direct FRET kinase assay; type: biochemical; details: 100 μM ATP; for IC50: read-out: Inhibitor IC50, FRET Direct ERK2; for inhibition of ERK2 direct assay: FRET
T12 construct: The following kinases were all full-length: B-RAF, unactive MEK1, active MEK1, unactive-fluorescein-labeled MEK1, active ERK2, and unactive ERK2; purchased Invitrogen
Protocol: FRET-based kinase data was processed in two steps. […] In order to apply equation 1, the 0% and 100% phosphorylation controls were used to establish the minimum and maximum emission ratio values on each assay plate. The 0% phosphorylation control was obtained from a mock kinase reaction run in the absence of ATP. The 100% phosphorylation control was obtained from a mock kinase reaction containing fully phosphorphorylated control peptide. The percent phosphorylation was calculated using the following equation: […]

MEK1-ERK2 = MEK1-ERK2 double cascade FRET assay; type: biochemical; details: 100 μM ATP; for IC50: read-out: Inhibitor IC50, FRET Double MEK1-ERK2; for inhibition of MEK1-ERK2 double cascade assay: FRET
BRAF-MEK1-ERK2 = test: B-RAF-MEK1-ERK2 triple cascade FRET assay; type: biochemical; details: 100 μM ATP; read-out: Inhibitor IC50, FRET Triple BRAF-MEK1-ERK2
BRAF V599E-MEK1-ERK2 = test: B-RAF V599E-MEK1-ERK2 triple cascade FRET assay; type: biochemical; details: 100 μM ATP; read-out: Inhibitor IC50, FRET Triple BRAF V599E-MEK1-ERK2
CRAF-MEK1-ERK2 = test: C-RAF-MEK1-ERK2 triple cascade FRET assay; type: biochemical; details: 100 μM ATP; read-out: Inhibitor IC50, FRET Triple CRAF-MEK1-ERK2
[2] = tested on: B-RAF, B-RAF V599E, or C-RAF triple cascades; test: three RAF triple cascade FRET assays; type: biochemical; details: 100 μM ATP; for IC50: one value or range for the three RAF triple cascades
[3] = tested on: B-RAF, B-RAF V599E, and C-RAF; test: RAF direct TR-FRET assays; type: biochemical; details: 100 μM ATP
Protocol: Development of the TR-FRET assay for RAF using a fluorescein-MEK1 substrate and terbium-labeled phospho-[Ser 217/221] MEK1 antibody has been described. Briefly, 200 nM of fluorescein-MEK1 was used as a substrate in a 10 µL assay. Reactions were conducted in the same 384-well plate type and kinase buffer as described for the FRET assays, initiated by the addition of ATP, and allowed to proceed for 1 hour at RT. After one hour, a 10 µL solution of EDTA and terbium-labeled phospho-[Ser 217/221] MEK1 antibody in 20 mM Tris, pH 7.5 and 0.01% NP-40 was added for a final well volume of 20 µL with final concentrations of antibody and EDTA at 2 nM and 10 mM, respectively. Following a 1 hour incubation at RT, plates were read as described previously. For TR-FRET-based assays, the average maximum signal to basal ratio ( ± standard deviation) obtained using eight different kinases was 8.9 ± 1.0. Inhibition assays were performed by adding 2.5 µL of inhibitor to a 5 µL solution of kinase and substrate, followed by 2.5 µL of ATP. […] The inhibitor studies were conducted in quadruplicate.

BRAF = target: T13, BRAF (Homo sapiens, UniProt P15056); test: B-RAF direct TR-FRET assay (fluorescein-MEK1 substrate); type: biochemical; details: 100 μM ATP; read-out: Inhibitor IC50, TR-FRET Direct BRAF
T13 construct: The following kinases were all full-length: B-RAF, unactive MEK1, active MEK1, unactive-fluorescein-labeled MEK1, active ERK2, and unactive ERK2; purchased Invitrogen
Protocol: (§2) Briefly, 200 nM of fluorescein-MEK1 was used as a substrate in a 10 µL assay. Reactions were conducted in the same 384-well plate type and kinase buffer as described for the FRET assays, initiated by the addition of ATP, and allowed to proceed for 1 hour at RT. […] MEK1 antibody in 20 mM Tris, pH 7.5 and 0.01% NP-40 was added for a final well volume of 20 µL with final concentrations of antibody and EDTA at 2 nM and 10 mM, respectively. Following a 1 hour incubation at RT, plates were read as described previously. […] Inhibition assays were performed by adding 2.5 µL of inhibitor to a 5 µL solution of kinase and substrate, followed by 2.5 µL of ATP. […] The inhibitor studies were conducted in quadruplicate.

BRAF V599E = target: T14, BRAF V599E (Homo sapiens, UniProt P15056, V600E); test: B-RAF V599E direct TR-FRET assay (fluorescein-MEK1 substrate); type: biochemical; details: 100 μM ATP; read-out: Inhibitor IC50, TR-FRET Direct BRAF V599E
T14 construct: amino acids 416-766 for B-RAF V599E and 306-648 for C-RAF; purchased Invitrogen
Protocol: as §2

[4] = tested on: activation of MEK1 by C-RAF; details: ~300 nM MEK1 as substrate; read-out: IC50, inhibition of activation of MEK1 by C-RAF; cited from earlier work
CRAF [5] = target: T1, CRAF; test: C-RAF direct TR-FRET assay (fluorescein-MEK1 substrate); type: biochemical; design: amino acids 416-766 for B-RAF V599E and 306-648 for C-RAF; purchased Invitrogen
Protocol: as §2

MEK1 activation = details: read-out: IC50, inhibition of MEK1 activation in Swiss 3T3 cells; cited from earlier work
MEK1 = details: cited from earlier work

Compound	IC50 (ERK2) [nM]	inhibition of ERK2 direct assay (ERK2)	IC50 (MEK1-ERK2) [nM]	inhibition of MEK1-ERK2 double cascade assay (MEK1-ERK2)	IC50 (BRAF-MEK1-ERK2) [nM]	IC50 (BRAF V599E-MEK1-ERK2) [nM]	IC50 (CRAF-MEK1-ERK2) [nM]	IC50 [2] [nM]	inhibition of B-RAF, B-RAF V599E and C-RAF TR-FRET direct assays [3]	further results
CNC(=O)c1cc(Oc2ccc(NC(=O)Nc3ccc(Cl)c(C(F)(F)F)c3)cc2)ccn1 [BAY-43-9006, Sorafenib]										% inhibition C-RAF (CRAF [1]): 50%; inhibition at 1 µM (VEGFR3): 40%; inhibition at 1 µM (FLT3): 89%; inhibition at 1 µM (FLT3 D835Y): 45%; inhibition at 1 µM (RET): 77%; inhibition at 1 µM (RET Y791F): 80%; inhibition at 1 µM (RET V804L): 44%; inhibition at 1 µM (PDGFR α): 33%; inhibition at 10 µM (PDGFR α): 75%; inhibition at 10 µM (PDGFR α D842V): 3%; inhibition at 10 µM (PDGFR α T674I): 37%; inhibition at 1 µM (HIPK4): 45%
O=C1Nc2ccc(I)cc2/C1=C/c1cc(Br)c(O)c(Br)c1 [GW5074]	> 400	no inhibition	> 400	no inhibition	3	[…]	[…]	[…]		inhibition of the three RAF triple cascade assays ([2]; FRET): […]; IC50 ([3]; range over the three RAF isoforms): […]
COc1cccc(-c2cc(=O)c3ccccc3o2)c1N [PD98059]	> 50000	no inhibition	> 50000	no inhibition	420	300	380	300 to 420	did not inhibit	IC50 (BRAF): > 50000 nM; IC50 (BRAF V599E): > 50000 nM; IC50 [4]: 2000 to 7000 nM; IC50 (CRAF [5]; 100 μM ATP, read-out: Inhibitor IC50, TR-FRET Direct CRAF): > 50000 nM; inhibition of C-RAF in direct TR-FRET assay (CRAF [5]; fluorescein-labeled unactivated MEK1 substrate): neither U0126 nor PD98059 significantly inhibited C-RAF
CN[C@@H]1C[C@H]2O[C@@](C)([C@@H]1OC)n1c3ccccc3c3c4c(c5c6ccccc6n2c5c31)C(=O)NC4 [Staurosporine]					56	69				
N#CC(=C(/N)Sc1ccccc1N)/C(C#N)=C(/N)Sc1ccccc1N [U0126]	> 50000		> 10000		[…]	[…]	66	[…]	very weak inhibitory activity	IC50 (MEK1 activation): ~70 nM; preferential inhibition of MEK1 activation over MEK1 (MEK1; radiometric kinase assays): ~ 100 fold; IC50 (MEK1; read-out: reported IC50, inhibition of MEK1): 13000 nM
Cc1ccc(NC(=O)c2cccc(N(C)C)c2)cc1NC(=O)c1ccc(O)cc1 [ZM336372]	> 50000	no inhibition	> 50000	no inhibition	400	32	30			
